The test system of assay [1] is HeLa cells. In words: CCK-8 antiproliferation assay, HeLa. It is filed as cell-based. The note with it: Homo sapiens, 48 h. How it is done:
(§1) Human lung carcinoma cell lines A549, human cervical cancer cell lines HeLa, human prostate cancer cell lines PC3, human colorectal carcinoma cell lines HCT116, and human liver cells L02 were purchased from the Chinese Academy of Sciences Shanghai Cell Bank (Shanghai, China). HeLa, A549, PC3, HCT116, and L02 cells were cultured in DMEM Dulbecco’s Modified Eagle Medium (DMEM; Gibco Inc., Gaithersburg, MD, USA). All cultures were provided with 10% fetal bovine serum (FBS; YHSM, Beijing, China), 100 IU/mL penicillin, and 100 μg/mL streptomycin, and cells were incubated at 37 °C in an atmosphere of 5% CO2.
(§2) Cell viability was determined using a CCK-8 kit (Apexbio, Houston, TX, USA). […] Subsequently, absorbance was assessed at 450 nm. Three duplicates were set in each group.
(§3) All synthesized quinoxalines compounds were tested for in vitro cytotoxicity against four cancer cell lines (HeLa, PC3, A549, and HCT116). The inhibitory effects of these compounds were evaluated using the CCK-8 assay after treatment with 20 μM of each compound. […] The species of phenyl substituents have a significant effect on the activity. […] By comparison, hydrophobic substitution at the phenyl ring gave derivatives with relatively low potency (QW7–8). In addition, large substituents on the phenyl ring exerted an unfavorable influence on the potency of the compounds (QW8 and QW16).

Assay [2] deals with PC3 cells. As to the kind of experiment: CCK-8 antiproliferation assay, PC3. Type of assay: cell-based. The settings on record: Homo sapiens, PC-3, 48 h. How it is done: as §1, §2, §3
The subject of assay [3] is A549 cells. In words: CCK-8 antiproliferation assay, A549. It is filed as cell-based. The note with it: Homo sapiens, 48 h. How it is done: as §1, §2, §3
Assay [4] has as its system HCT116 cells. As to the kind of experiment: CCK-8 antiproliferation assay, HCT116. It is filed as cell-based. The note with it: Homo sapiens, HCT-116, 48 h. The method, then: as §1, §2, §3
The subject of assay [5] is HeLa cells. In words: Annexin V-FITC/PI apoptosis assay, flow cytometry. It is filed as cell-based, human. The settings on record: control 3.5%. The method, then:
For the Annexin V apoptosis assay, cells were collected at the end of the treatment, washed with cold PBS, and stained with the PI/Annexin V-FITC apoptosis kit (4A Biotech Co., Ltd., Beijing, China) following the manufacturer’s instructions. All flow cytometric analyses were performed at the Tianfu Science and Technology Park Molecular and Cell Platform in the West China Hospital.

Assay [6] has as its system Bcl-2 and Bax in HeLa cells. In words: Western blot of Bcl-2 and Bax. It is filed as cell-based, human. The note with it: 24 h. The method, then: (§4) HeLa cells were seeded in a 6-well plate overnight and treated with QW12 for 24 h. The cells were then harvested and washed with cold PBS and lysed with RIPA buffer supplemented with a protease and phosphatase inhibitor cocktail. Protein concentration was measured using a BCA protein assay kit (Boster Biological Technology Co., Ltd., Wuhan, China). Proteins were separated by 10% SDS-PAGE gel and transferred onto polyvinylidene difluoride (PVDF) membranes (Millipore Co., Billerica, MA, USA). After blocking with 5% mild in PBST for 1 h at room temperature, membranes were incubated with specific primary antibodies against STAT3 (#ET1605-45), Bcl-2 (#ET1603-11), Bax (#ET1603-34), or GAPDH (#HA721136) overnight at 4 °C. The above antibodies were purchased from HUABIO, China. Phospho-STAT3 (Tyr 705) (#9145S) and anti-rabbit IgG, HRP-linked antibody (#7074S) were purchased from Cell Signaling Technology, Inc. America. The next day, the membranes were washed with PBST three times and incubated with secondary antibodies 2 h at room temperature. Images were captured and documented with a CCD system (Tanon 5200, Biotanon, Shanghai, China).

In assay [7] the test system is STAT3 phosphorylation (Y705) in HeLa cells. In words: Western blot of STAT3 Y705 phosphorylation. The note with it: 12 h. Type of assay: cell-based, human. The method, then:
as §4, with “The next day, the membranes were washed with PBST three times and incubated with secondary antibodies 2 h at room temperature. Images were captured and documented with a CCD system (Tanon 5200, Biotanon, Shanghai, China).” left out
The activation of STAT3 is tightly regulated during various physiological processes, and the aberrant and persistent activation of STAT3 has been found in various types of cancer. […] Western blot analysis determined whether QW12 could also regulate the STAT3 signaling pathway in HeLa cells. HeLa cells were treated with QW12 for 12 h, and total cell lysates were prepared; Y705-phosphorylated STAT3 proteins were detected using a specific antibody.

In assay [8] the test system is phosphorylated AKT (T308) in HeLa cells. In words: Western blot of AKT (T308) phosphorylation. Type of assay: cell-based, human. The note with it: total AKT not affected, reversed by NAC.
Where [9] appears, read: HeLa cells, 10, 40 μM, vs control.

For `COc1cc(-c2ccc(/C=N/NC(=O)c3ccc(O)cc3)o2)c(OC)cc1-c1ccc2nccnc2c1` [QW12, (E)-N’-((5-(2,5-dimethoxy-4-(quinoxalin-6-yl)phenyl)furan-2-yl)methylene)-4-hydroxybenzohydrazide], the IC50 in assay [1] (HeLa, CCK-8, read-out: IC50 ± SD, HeLa) was found to be 10.58 ± 0.1 µM; in assay [2] (CCK-8, read-out: IC50 ± SD, PC3), 12.7 ± 0.57 µM; in assay [3] (CCK-8, read-out: IC50 ± SD, A549) it was 20.6 ± 1.22 µM; in assay [4] (CCK-8, read-out: IC50 ± SD, HCT116), 12.2 ± 0.25 µM. Moreover, the inhibition at 20 µM in assay [1] (20 μM, CCK-8, mean ± SD, read-out: Inhibition Rate (%) at 20 μM, HeLa) was found to be 76.35 ± 0.11%; in assay [2] (20 μM, CCK-8, mean ± SD, read-out: Inhibition Rate (%) at 20 μM, PC3), 52.55 ± 0.47%; in assay [3] (20 μM, CCK-8, mean ± SD, read-out: Inhibition Rate (%) at 20 μM, A549), 50.8 ± 0.62%; in assay [4] (20 μM, CCK-8, mean ± SD, read-out: Inhibition Rate (%) at 20 μM, HCT116), 65.43 ± 0.27%. The figures for the cell apoptosis rate in assay [5] (10 μM) and in assay [5] (40 μM) were 13.9% and 34.7%, respectively. For the same compound, the Bcl-2/Bax expression ratio in assay [6] (40 μM, control 1.00) was found to be 0.66 ± 0.01. In addition, the Bax expression entry in assay [6] (setting [9]) is on record as “increased slightly”. Moreover, the Bcl-2 expression result in assay [6] (setting [9]) is listed as “decreased significantly”. In addition, the “effect on STAT3 Tyr705 phosphorylation” value in assay [7] is on record as “inhibited Tyr705 phosphorylation in a dose-dependent manner”. Moreover, the “effect on total STAT3 level” value in assay [7] is recorded as “also decreased”. The “effect on phosphorylated AKT levels (T308)” value in assay [8] is “significantly decreased”.

Source of the values: article PMC9698340, “Discovery and SAR Study of Quinoxaline–Arylfuran Derivatives as a New Class of Antitumor Agents” (Pharmaceutics, 2022).
